Assay results taken from publication PMC12301034, “Design and Synthesis of Boronic Chalcones with Dual Anticancer and Anti-Inflammatory Activity” (Molecules, 2025).
Where two headings read alike, the source gives them in different places.

What was measured:
[1] = Metabolic stability in human liver microsomes; assay type: in vitro ADME
Method: The metabolic stability of test compounds and controls [imipramine (Sigma-Aldrich, St. Louis, MO, USA), verapamil (Sigma-Aldrich, St. Louis, MO, USA), and warfarin (Sigma-Aldrich, St. Louis, MO, USA)] were assessed using human pooled liver human microsomes (20 mg/mL) (GIBCO, Frederick, MD, USA) and pooled liver CD1 mouse microsomes (20 mg/mL) (GIBCO, Frederick, MD, USA). […] Microsomal suspensions were thawed and diluted in phosphate buffer to obtain a final concentration of 0.25 mg/mL. A solution of NADPH (Sigma-Aldrich, St. Louis, MO, USA) at […] was also prepared in phosphate buffer. […] The plate was incubated at 37 °C under shaking (100 rpm). […] The reactions were stopped by adding quenching solution (75 μL) consisting of acetonitrile:methanol (1:1) with an internal standard (50 nM). Samples were centrifuged (3500 rpm, 30 min) to remove precipitated microsomal proteins, and the supernatant fractions were analyzed by an LCMS-8045 system (Shimazu, Kyoto, Japan). The chromatographic analysis was performed using a Supelco Ascentis Express C18 column (3 cm × 2.1 mm, 5 μm). The mobile phases consisted of water + 0.1% formic acid (A) and acetonitrile + 0.1% formic acid (B). […] The run time was 2 min, with a sample injection volume of 10 μL and a flow rate of 0.7 mL/min. Metabolic stability was assessed by calculating the peak area ratios (analyte/internal standard) and converting them into the percentage of the compound remaining, using the area ratio at time 0 as 100%.

[2] = test system: SCC-25 cells; assay: MTT cytotoxicity assay on SCC-25 cells; assay type: cell-based, human; details: Homo sapiens, SCC-25; MTT, 24 h incubation, mean SEM of three experiments
Text: The SCC-25 (ATCC® CRL-1628™), Detroit-562 (ATCC® CCL-138™), and THP-1 (ATCC® TIB-202™) cells were purchased from Rio de Janeiro Cell Bank (Duque de Caxias, Brazil), and NOK-si was kindly provided by Prof. Carlos Rossa from the School of Dentistry—UNESP. All the cells were cultivated according to standard conditions. Human colorectal adenocarcinoma HCT116 cell lines (ATCC® CCL-247™) expressing p53 and its p53-null isogenic derivative (HCT116 p53^−/−) were provided by B. Vogelstein (The Johns Hopkins Kimmel Cancer Center, Baltimore, MD, USA).
Cells (NOK-si, SCC-25, and Detroit-562) were grown in a DMEM medium (Dulbecco’s Modified Eagle Medium), supplemented according to the needs of each lineage, as recommended by its cell banks, with 2 mM L-glutamine, 10% or 20% fetal bovine serum (FBS), 1% antibiotic–antimycotic solution (5 mg/mL penicillin, 5 mg/mL streptomycin, and 10 mg/mL neomycin), 4.5 g/L of glucose, and 3.7 g/L of sodium bicarbonate (NaHCO3). All cell lines were cultured in flasks at 37 °C in 5% carbon dioxide (CO2) and 95% of relative humidity. The assays were conducted between the third- and the seventh-cell passage, with sub-cultures every 3–4 days to maintain exponential growth. The cell viability was checked using the trypan blue dye exclusion assay for all experiments, where over 95% of the cells were viable at the beginning of the tests. NOK-si, SCC-25, and Detroit-562 were initially thawed and cultured in 25 cm^2 cell culture flasks. Cell growth was monitored using a microscope, and the culture medium was changed periodically. Upon reaching confluency, cell dissociation was achieved by adding 5 mL of trypsin (Sigma-Aldrich, St Louis, MO, USA) and incubating the bottles in a CO2 incubator for 10 min. Subsequently, the cells were transferred to 15 mL Falcon tubes and centrifuged at 2000 rpm for 10 min. Cell counting was performed using a Countess II FL automated cell counter (ThermoFischer, Waltham, MA, USA). The cells were seeded at a density of 30,000 cells per well in 96-well plates. The plates were then incubated at 37 °C in 5% CO2 for 24 h. Following this, test compounds were incubated for another 24 h at 10 different concentrations: 50, 25, 12.5, 6.25, 3.12, 1.56, 0.78, 0.39, 0.19, and 0.097 µg/mL. After the specified time, MTT reagent (3 mg/mL) (Sigma-Aldrich, St Louis, MO, USA) dissolved in phenol-free RPMI 1640 was added and incubated for 4 h. The formed MTT crystals were solubilized using 2-propanol P.A. (Sigma-Aldrich, St Louis, MO, USA) with agitation. Absorbance was read at 562 nm using an EZ Read 400 microplate reader (Biochrom, Cambridge, UK) and ADAP 2.0 Biochrom software (version 2.0). IC50 values and graphs were calculated using Excel and Prism software (version 10.4.1). The MTT assay results were evaluated for normality using the Shapiro–Wilk test, followed by one-way ANOVA with Tukey’s post hoc test at a significance level of 5%.

[3] = Parallel artificial membrane permeability assay (PAMPA); assay type: in vitro ADME
Method: The parallel artificial membrane permeability assay (PAMPA) was performed using a 96-well pre-coated PAMPA plate system (Corning, Bedford, MA, USA). Solutions of test compounds and controls [metoprolol (Sigma-Aldrich, St. Louis, MO, USA) and nadolol (Sigma-Aldrich, St. Louis, MO, USA)] were prepared by diluting 10 mM stock solutions in DMSO with phosphate-buffered saline (PBS) at pH 6.5 to obtain a final concentration of 10 μM (final DMSO concentration ≤ 1%). The donor compartment was loaded with 300 μL of the prepared compound solutions, while the acceptor compartment received 200 μL of PBS pH 7.4. The plate was then assembled, and the system was incubated at 37 °C, with shaking at 100 rpm for 5 h. Samples of the initial donor solution (T0) were collected (10 μL) and transferred to an analysis plate. A quenching solution [10% water and 90% methanol: acetonitrile (50:50) + 50 nM tolbutamide (Sigma-Aldrich, St. Louis, MO, USA) as internal standard] was added (300 μL), along with 60 μL of PBS buffer pH 6.5. The analysis plate was stored at −20 °C. At the end of the incubation period, samples were collected from the donor and acceptor compartments and added to the analysis plate, following the same quenching procedure. The final concentrations of the compounds in the donor, acceptor, and T0 wells were quantified by an LCMS-8045 system (Shimazu, Kyoto, Japan). […]

intrinsic clearance (Clint) in HLM [1]: high clearance | microsomal CLint at 0.51 μM ([1]; human, microsomes, pH 7.4): 56.8 µL/min/mg | half-life at 0.51 μM ([1]; human, pooled liver microsomes, pH 7.4, read-out: Human Liver Microsome (HLM) T1/2): 48.8 min | microsomal CLint at 0.51 μM ([1]; human, pooled liver microsomes, pH 7.4, read-out: intrinsic clearance (Clint) in HLM): 77 µL/min/mg | permeability class [3]: high passive permeability | Papp at 5 h, 10 μM ([3]; donor pH 6.5, acceptor pH 7.4, 5 h, 37 °C, read-out: PAMPA (Mean Pe)): 17.5 ×10⁻⁶ cm/s
SMILES: COc1cccc(C(=O)/C=C/c2cccc(B(O)O)c2)c1 [Compound 5, (E)-(3-(3-(3-methoxyphenyl)-3-oxoprop-1-en-1-yl)phenyl)boronic acid]
IC50 [2]: 17.9 ± 0.35 µM
